Reference: ChEMBL document CHEMBL1129187, “Synthesis, enzymatic phosphorylation and antiviral activity of acyclic dienyl phosphonate derivatives of guanine” (Bioorg Med Chem Lett, 1996)
One block for each compound: values may come before it.

How the values were obtained:
Human alphaherpesvirus 1 [1] = assay: Anti-HSV-1 activity at 300 uM; Not active; type: functional, organism-based
MT4 [2] = assay: Compound was evaluated for the concentration required to reduce the viability of MT-4 cells.; type: functional; conditions: Homo sapiens
Vero = assay: Cytotoxicity against Vero cells up to 250 uM; Not active; type: functional, cell-based, Chlorocebus sabaeus
Human alphaherpesvirus 1 [3] = assay: Inhibitory activity against HSV-1 replication; type: functional, organism-based
[4] = Ratio of kinetic parameters of Vmax to Km was reported
MT4 [5] = assay: Compound was evaluated for the inhibition of HIV-1 induced cytopathic effect in MT-4 cells.; type: functional, cell-based; conditions: Homo sapiens
Human betaherpesvirus 5 [6] = assay: Inhibition of HCMV replication in Vero cells at 250 uM; No inhibition; type: functional, organism-based
Human betaherpesvirus 5 [7] = assay: Inhibition of HCMV replication in MRC-5 cells; No inhibition; type: functional, organism-based; conditions: mrc5
C8166 = assay: Compound was evaluated for the inhibition of p24 viral antigen production in C-8166 cells.; type: functional, cell-based; conditions: Homo sapiens
Human alphaherpesvirus 1 [8] = assay: Tested for activity against HSV-1; Not active; type: functional, organism-based

Compound: C=C(/C=C/P(=O)(O)O)Cn1cnc2c(O)nc(N)nc21
IC50 (Human alphaherpesvirus 1 [1]): Not Active | CC50 (MT4 [2]): > 1000 µM | IC50 (Vero): Not Active | IC50 (Human alphaherpesvirus 1 [3]): 119 µM | Ratio [4]: 1.8 | EC50 (MT4 [5]): > 100 µM | IC50 (Human betaherpesvirus 5 [6]): Not Active | IC50 (Human betaherpesvirus 5 [7]): Not Active

Compound: Nc1ncnc2c1ncn2CCOCP(=O)(O)O [ADEFOVIR]
IC50 (Human alphaherpesvirus 1 [3]): 117 µM | EC50 (C8166): 1.5 µM | EC50 (MT4 [5]): 20 µM

Compound: O=c1[nH]cnc2c1ncn2[C@H]1CC[C@@H](CO)O1 [DIDANOSINE]
CC50 (MT4 [2]): > 1000 µM | EC50 (C8166): 0.9 µM | EC50 (MT4 [5]): 13 µM

Ratio [4]: 100
Compound: Nc1nc2c(ncn2[C@@H]2O[C@H](COP(=O)(O)O)[C@H](O)[C@@H]2O)c(=O)[nH]1

Compound: C=C(/C=C/P(=O)(O)O)CCn1cnc2c(O)nc(N)nc21
CC50 (MT4 [2]): > 1000 µM | IC50 (Vero): Not Active | IC50 (Human alphaherpesvirus 1 [8]): Not Active | Ratio [4]: 102 | EC50 (C8166): 8 µM | EC50 (MT4 [5]): 49 µM | IC50 (Human betaherpesvirus 5 [6]): Not Active | IC50 (Human betaherpesvirus 5 [7]): Not Active

Compound: Cc1cn([C@H]2C[C@H](N=[N+]=[N-])[C@@H](CO)O2)c(=O)[nH]c1=O [ZIDOVUDINE]
EC50 (C8166): 0.04 µM | EC50 (MT4 [5]): 0.04 µM
